In patent publication US20240082212A1, “USE OF MDMA FOR TREATMENT OF STRESS-RELATED DISORDERS” (priority 2022, published 2024):
Several values for one entry are separate records, joined by “and”; a condition that tells them apart may be missing. Equal values may be shown once. Read-outs that look alike come from different tables or passages of the source.

Experiments:
[1] = target: Serotonin 5-HT2B (Homo sapiens, UniProt P41595); assay: Eurofins Panlabs radioligand binding panel, serotonin 5-HT2B; conditions: for IC50: IC50, 10 half-log concentrations; for IC50 / Ki: 0.3 nM to 10 μM, duplicate; for Ki: 10 half-log concentrations
[2] = test system: cortical neurons; assay: Neurite outgrowth in embryonic rat cortical neuron cultures; format: cell-based; conditions: 3 days
Excerpt: Female Wistar rats of 17 days gestation were killed by cervical dislocation and the fetuses (typically 6 to 8 in number) were removed from the uteri. Fetal brains were placed in ice-cold medium of Leibovitz (L15, Gibco, France). Cortex was dissected and meninges were carefully removed. The cortical neurons were dissociated by trypsinization (trypsin-EDTA, Gibco) in the presence of DNAse I (Roche, France). The reaction was stopped by addition of Dulbecco's Modified Eagle Medium (DMEM; Gibco) with 10% of fetal bovine serum (FBS; Gibco). The suspension was triturated with a 10-ml pipette and a 21-gauge needle syringe and centrifuged. The pellet of dissociated cells was resuspended in a medium consisting of Neurobasal (Gibco) supplemented with 2% B27 supplement (Gibco), 0.5 mM L-Glutamine (Gibco), and an antibiotic-antimycotic mixture. Viable cells were counted in a Neubauer cytometer and cells were seeded in 96-well plates (Costar) precoated with poly-L-lysine at 10,000 cells/well. […] Stock solutions were prepared in sterile water at 10 mM and stored at −20° C. until used. Further dilutions were prepared in culture in the medium on the day of the treatment. 0.1% Sterile water was present in all tested conditions.
The experimental protocol was performed in two independent cultures (i.e., from two different pregnant rats). For each culture, each condition was tested in sextuplet (6 wells per condition per culture for a total of 12 wells per condition). […] After three days of plating and compound treatment (Day 3), cultures were fixed with paraformaldehyde in phosphate buffered saline at 4° C. (PBS, 4%, Sigma). All subsequent steps were performed at room temperature. Cells were successively permeabilized for 30 minutes using 0.1% triton, saturated with PBS containing 3% bovine serum albumin (BSA) and incubated for 1 hour with anti-beta III tubulin antibody (T5168, Sigma). […] Finally, nuclei were stained with 4′-6-diamidino-2-phenylindole (DAPI). After rinsing the cells with PBS, the plate was imaged and neurite networks were examined and analyzed using a High-Content Screening platform (CellInsight CXS, Thermo Scientific) with integrated Photometrics high-resolution fluorescent camera, Olympus objective (10×) and HCS Studio Cell Analysis Software. Approximately 2,000 neurons per well were analyzed using a validated cortex neuron outgrowth algorithm that utilizes parameters optimized for analysis of embryonic rat cortical neuron cultures. The HCS Studio Cell Analysis Software output included values for neurite total count (#), neurite total length (μm) and total number of branch points (#) for each of the 6 wells per culture. The evaluation of neurite outgrowth was performed using the average number of neurites per neuron (#), the average of total neurite length per neuron (μm) and the average number of branch points per neuron (#) across 12 wells. Data also was transformed to percent (%) of the average vehicle control value. Results were expressed as mean (±s.e.m.) of the transformed (% of vehicle control) data. Statistical analyses were performed on transformed percent of the average vehicle control data for each measure for each test article using one-way analysis of variance (Anova, StatView). Where applicable, Dunnett's test was used for multiple pairwise comparisons to the negative control (vehicle) condition. […] The level of significance was set at p value less than or equal to 0.05 (*p<0.05).

[3] = Rat plasma pharmacokinetics after cumulative (QID) SC injections; conditions: for half-life: T1/2, male rat plasma
[4] = Rat brain monoamine and metabolite concentrations 1 week after cumulative SC dosing; conditions: for 5-HIAA mean brain concentration / 5-HT mean brain concentration: frontal cortex; for 5-HIAA mean brain concentration / 5-HT mean brain concentration / DA mean brain concentration / DOPAC mean brain concentration / HVA mean brain concentration: male rat; for DA mean brain concentration / DOPAC mean brain concentration / HVA mean brain concentration: striatum
[5] = any tested concentration (0.001 to 10000 nM), vs vehicle
[6] = from 5 to 10 mg/kg/day S-MDMA, QID SC
[7] = from 5 to 20 mg/kg/day S-MDMA, QID SC
[8] = male rat plasma, metabolite S-MDA after QID SC S-MDMA, total 5 mg/kg/day
[9] = male rat plasma, metabolite after QID SC parent, total 10 mg/kg/day
[10] = male rat plasma, metabolite after QID SC parent, total 20 mg/kg/day
[11] = male rat plasma, parent analyte, QID SC, total 5 mg/kg/day
[12] = male rat plasma, parent analyte, QID SC, total 10 mg/kg/day
[13] = male rat plasma, parent analyte, QID SC, total 20 mg/kg/day
[14] = cumulative SC, 5 mg/kg/injection, 1 week after dosing, 5 mg/kg
[15] = 10 μM, vs 0.1% sterile water vehicle
[16] = cumulative SC, 5 mg/kg/injection, 1 week after dosing
[17] = 1 week after 4 hourly SC injections of 2.5 mg/kg
[18] = 1 week after 4 hourly SC injections of 5 mg/kg
[19] = 1 week after 4 hourly SC injections of 5 mg/kg, 5 mg/kg
[20] = 1 week after 4 hourly SC injections of 10 mg/kg, N=2
[21] = 1 week after 4 hourly SC injections of 10 mg/kg, N=2, 10 mg/kg

Serotonin 5-HT2B, sequence (P41595 whole entry): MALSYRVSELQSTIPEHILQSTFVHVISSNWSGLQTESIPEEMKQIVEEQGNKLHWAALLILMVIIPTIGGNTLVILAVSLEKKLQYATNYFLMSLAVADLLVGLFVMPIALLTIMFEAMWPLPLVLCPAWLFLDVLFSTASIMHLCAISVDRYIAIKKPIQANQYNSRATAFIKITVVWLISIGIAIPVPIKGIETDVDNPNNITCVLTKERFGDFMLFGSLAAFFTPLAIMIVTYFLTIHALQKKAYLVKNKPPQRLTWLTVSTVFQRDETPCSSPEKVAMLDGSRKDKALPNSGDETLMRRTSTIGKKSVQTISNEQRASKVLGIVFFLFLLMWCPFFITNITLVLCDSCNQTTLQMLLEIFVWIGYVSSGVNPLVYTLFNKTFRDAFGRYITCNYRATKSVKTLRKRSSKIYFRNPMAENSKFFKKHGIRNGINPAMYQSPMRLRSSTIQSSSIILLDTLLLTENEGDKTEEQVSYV

C[C@H](N)Cc1ccc2c(c1)OCO2 [S-MDA, S(+)-MDA]
% inhibition of binding or activity ([1]; 10 uM): 82%
neurite number (#) [2, 5]: did not significantly alter
neurite total length (μm) [2, 5]: did not significantly alter
total number of branch points (#) [2, 5]: did not significantly alter
dose dependence of Cmax and AUC0-27 hr [3, 6]: approximately dose proportional manner
dose dependence of Cmax and AUC0-27 hr [3, 7]: greater than dose proportional manner
AUC0-27 hr [3, 8]: 1280 ng·h/mL
AUC0-27 hr/Dose [3, 8]: 256 *kg*ng/mL/mg
AUCTlast [3, 8]: 1270 ng·h/mL
Cmax [3, 8]: 342 ng/mL
Cmax/Dose [3, 8]: 68.4 kg·ng/mL/mg
Tlast [3, 8]: 9 h
Tmax [3, 8]: 4 h
Cmax ([3]; male rat plasma, metabolite after QID SC parent (R-MDA after R-MDMA, S-MDA after S-MDMA, total MDA after Rac-MDMA), total 10 mg/kg/day): 957 ng/mL
Cmax ([3]; male rat plasma, metabolite after QID SC parent (R-MDA after R-MDMA, S-MDA after S-MDMA, total MDA after Rac-MDMA), total 20 mg/kg/day): 2500 ng/mL
AUC0-27 hr [3, 9]: 6770 ng·h/mL
AUC0-27 hr/Dose [3, 9]: 677 *kg*ng/mL/mg
AUCTlast [3, 9]: 5180 ng·h/mL
Cmax/Dose [3, 9]: 95.7 kg·ng/mL/mg
Tlast [3, 9]: 11 h
Tmax [3, 9]: 5 h
AUC0-27 hr [3, 10]: 26300 ng·h/mL
AUC0-27 hr/Dose [3, 10]: 1320 *kg*ng/mL/mg
AUCTlast [3, 10]: 26300 ng·h/mL
Cmax/Dose [3, 10]: 125 kg·ng/mL/mg
Tlast [3, 10]: 27 h
Tmax [3, 10]: 5 h

CNC(C)Cc1ccc2c(c1)OCO2 (single isomer, unassigned) [S-MDMA, S(+)-MDMA]
IC50 [1]: 12 µM
Ki [1]: 7.65 µM
neurite number (#) [2, 5]: did not significantly alter
neurite total length (μm) [2, 5]: did not significantly alter
total number of branch points (#) [2, 5]: did not significantly alter
dose dependence of Cmax and AUC0-27 hr [3, 6]: approximately dose proportional manner
dose dependence of Cmax and AUC0-27 hr [3, 7]: greater than dose proportional manner
Cmax ([3]; male rat plasma, parent analyte (total MDMA after Rac-MDMA), QID SC, total 10 mg/kg/day of the test article): 1220 ng/mL
Cmax ([3]; male rat plasma, parent analyte (total MDMA after Rac-MDMA), QID SC, total 20 mg/kg/day of the test article): 2560 ng/mL
AUC0-27 hr/Dose [3, 11]: 302 *kg*ng/mL/mg
Cmax/Dose [3, 11]: 89.3 kg·ng/mL/mg
Tlast [3, 11]: 7 h
AUC0-27 hr [3, 12]: 4130 ng·h/mL
AUC0-27 hr/Dose [3, 12]: 413 *kg*ng/mL/mg
AUCTlast [3, 12]: 4030 ng·h/mL
Cmax/Dose [3, 12]: 122 kg·ng/mL/mg
T1/2 [3, 12]: 1.15 h
Tlast [3, 12]: 11 h
Tmax ([3]; male rat plasma, parent analyte, QID SC, total 10 mg/kg/day, time after 1st injection): 3.5 h
AUC0-27 hr [3, 13]: 15000 ng·h/mL
AUC0-27 hr/Dose [3, 13]: 748 *kg*ng/mL/mg
AUCTlast [3, 13]: 15000 ng·h/mL
Cmax/Dose [3, 13]: 128 kg·ng/mL/mg
Tlast [3, 13]: 27 h
AUC(0-t) ([3]; male, CD (Sprague Dawley), rat, plasma, sc, 5 mg/kg/day, AUC0-27 hr, male rat plasma, parent analyte, QID SC, total 5 mg/kg/day): 1510 ng·h/mL
AUC(0-t) ([3]; male, CD (Sprague Dawley), rat, plasma, sc, 5 mg/kg/day, AUCTlast, male rat plasma, parent analyte, QID SC, total 5 mg/kg/day): 1490 ng·h/mL
half-life ([3]; male, CD (Sprague Dawley), rat, plasma, sc, 5 mg/kg/day, parent analyte, QID SC, total 5 mg/kg/day): 0.754 h
half-life ([3]; male, CD (Sprague Dawley), rat, plasma, sc, 20 mg/kg/day, parent analyte, QID SC, total 20 mg/kg/day): 3.17 h
Cmax ([3]; male, Sprague-Dawley (CD), rat, plasma, sc, 5 mg/kg/day, Cmax, male rat plasma, parent analyte, QID SC, total 5 mg/kg/day of the test article): 447 ng/mL
frontal cortex 5-HT (serotonin) compared to vehicle [4, 14]: significantly decreased frontal cortex 5-HT concentrations

CNC(C)Cc1ccc2c(c1)OCO2 (racemic) [Racemic MDMA, 3,4-methylenedioxymethamphetamine]
% inhibition of binding or activity ([1]; 10 uM): 85%
neurite number (#) [2, 15]: significantly increased
neurite total length (μm) [2, 15]: significantly increased
total number of branch points (#) [2, 15]: significantly increased
frontal cortex 5-HT (serotonin) compared to vehicle [4, 16]: significantly reduced frontal cortex 5-HT concentrations
5-HIAA mean brain concentration [4, 17]: 368.17 ng/g
5-HT mean brain concentration [4, 17]: 183.90 ng/g
5-HIAA mean brain concentration [4, 18]: 234.63 ng/g
5-HT mean brain concentration [4, 19]: 88.38 ng/g and 88.38 b** n* p* ng/g
5-HIAA mean brain concentration [4, 20]: 235.00 ng/g
5-HT mean brain concentration [4, 20]: 100.85 ng/g
DA mean brain concentration [4, 17]: 5956.67 ng/g
DOPAC mean brain concentration [4, 17]: 1811.00 ng/g
HVA mean brain concentration [4, 17]: 706.83 ng/g
DA mean brain concentration [4, 18]: 5190.63 ng/g
HVA mean brain concentration [4, 18]: 577.00 ng/g
DOPAC mean brain concentration [4, 19]: 1962.75 ng/g and 1962.75 h** ng/g
DA mean brain concentration [4, 20]: 7405.00 ng/g
DOPAC mean brain concentration [4, 21]: 2015.00 ng/g and 2015.00 h* ng/g
HVA mean brain concentration [4, 21]: 923.50 ng/g and 923.50 d**h* ng/g

CNC(C)Cc1ccc2c(c1)OCO2 (single isomer, unassigned) [R-MDMA, R(−)-3,4-methylenedioxymethamphetamine]
inhibition at 10 µM ([1]; 10 uM, read-out: % inhibition of binding or activity): 79%
IC50 [1]: 1.4 µM
Ki [1]: 0.89 µM
neurite number (#) ([2]; 0.0001 μM, vs 0.1% sterile water vehicle): significantly increased
neurite number (#) [2, 15]: significantly increased
neurite total length (μm) [2, 15]: significantly increased
total number of branch points (#) [2, 15]: significantly increased
AUC(0-t) [3]: 11800 ng·h/mL
dose dependence of Cmax and AUC0-27 hr ([3]; dose increase from 10 to 20 mg/kg/day of the dosed test article, QID SC): approximately dose proportional manner
AUC0-27 hr/Dose [3, 12]: 420 *kg*ng/mL/mg
Cmax/Dose [3, 12]: 114 kg·ng/mL/mg
Tlast [3, 12]: 11 h
AUC0-27 hr/Dose [3, 13]: 590 *kg*ng/mL/mg
Cmax/Dose [3, 13]: 127 kg·ng/mL/mg
Tlast [3, 13]: 11 h
AUC(0-t) ([3]; male, Sprague-Dawley (CD), rat, plasma, sc, 10 mg/kg/day, AUC0-27 hr, male rat plasma, parent analyte, QID SC, total 10 mg/kg/day): 4200 ng·h/mL
AUC(0-t) ([3]; male, Sprague-Dawley (CD), rat, plasma, sc, 10 mg/kg/day, AUCTlast, male rat plasma, parent analyte, QID SC, total 10 mg/kg/day): 4160 ng·h/mL
Cmax ([3]; male, Sprague-Dawley (CD), rat, plasma, sc, 10 mg/kg/day, Cmax, male rat plasma, parent analyte (total MDMA after Rac-MDMA), QID SC, total 10 mg/kg/day of the test article): 1140 ng/mL
half-life ([3]; male, Sprague-Dawley (CD), rat, plasma, sc, 10 mg/kg/day, parent analyte, QID SC, total 10 mg/kg/day): 1.01 h
AUC(0-t) ([3]; male, Sprague-Dawley (CD), rat, plasma, sc, 20 mg/kg/day, AUCTlast, male rat plasma, parent analyte, QID SC, total 20 mg/kg/day): 11300 ng·h/mL
Cmax ([3]; male, Sprague-Dawley (CD), rat, plasma, sc, 20 mg/kg/day, Cmax, male rat plasma, parent analyte (total MDMA after Rac-MDMA), QID SC, total 20 mg/kg/day of the test article): 2550 ng/mL
striatal DA compared to the corresponding vehicle condition [4, 16]: significantly increased striatal DA
frontal cortex 5-HT (serotonin) compared to vehicle [4, 14]: did not reduce serotonin content in the frontal cortex
striatal HVA compared to the pooled vehicle condition ([4]; cumulative SC, 10 mg/kg/injection, n=2, 1 week after dosing): significantly reduced striatal HVA
